Measured values published in paper PMC12169614, “Exploring Long Arm Amide-Linked Side Chains in the Design of Antifungal Azole Inhibitors of Sterol 14α-Demethylase (CYP51)” (Journal of Medicinal Chemistry, 2025).

How the values were obtained:
Y2411 Endog. ScCYP51 = assay: MIC80 determination, strain Y2411; type: cell-based, S. cerevisiae; details: Saccharomyces cerevisiae; strain Y2411 Endog. ScCYP51; SD pH 6.8, 30 °C, 48 h
Description: (§1) Cells were seeded at an OD600 nm of 0.005 (1.5 × 10^4 CFU), and the plates were incubated at 30 °C with shaking at 200 rpm for 48 h for S. cerevisiae strains and 24 h for C. albicans . Cell growth was assessed by measuring the OD600 nm using a Synergy 2 multimode plate reader (BioTek Instruments, VT, USA). Each MIC80 was determined using triplicate measurements for pools of 4 clones of each strain in three separate experiments.

Y2300 OE ScCYP51 = assay: MIC80 determination, strain Y2300; type: cell-based, S. cerevisiae; details: Saccharomyces cerevisiae, 48 h, pH 6.8
Description: as §1

Y2301 OE ScCYP51 Y140F = assay: MIC80 determination, strain Y2301; type: cell-based, S. cerevisiae; details: Saccharomyces cerevisiae, 48 h, pH 6.8
Description: as §1

Y2513 OE ScCYP51 Y140H = assay: MIC80 determination, strain Y2513; type: cell-based, S. cerevisiae; details: Saccharomyces cerevisiae, 48 h, pH 6.8
Description: as §1

Y2459 OE CaCYP51 CaCpr = assay: MIC80 determination, strain Y2459; type: cell-based, S. cerevisiae; details: Saccharomyces cerevisiae, 48 h, pH 6.8
Description: as §1

Y525 OE CaMDR1a = assay: MIC80 determination, strain Y525; type: cell-based, S. cerevisiae; details: Saccharomyces cerevisiae, 48 h, pH 6.8
Description: as §1

Y570 OE CaCDR1B = assay: MIC80 determination, strain Y570; type: cell-based, S. cerevisiae; details: Saccharomyces cerevisiae, 48 h, pH 6.8
Description: as §1

Y71 SC5314 = assay: MIC80 determination, C. albicans clinical isolate Y71 SC5314; type: cell-based; details: Candida albicans; C. albicans clinical isolate Y71 SC5314; pH 7, 24 h
Description: as §1

Y1 = assay: MIC80 determination, C. albicans clinical isolate Y1; type: cell-based; details: Candida albicans, pH 7, 24 h
Description: as §1

Y610 FHB1 = assay: MIC80 determination, C. albicans clinical isolate Y610 FHB1; type: cell-based; details: Candida albicans; C. albicans clinical isolate Y610 FHB1 (weakly expresses CaCDR1); pH 7, 24 h
Description: as §1

Y611 FHB3 = assay: MIC80 determination, C. albicans clinical isolate Y611 FHB3; type: cell-based; details: Candida albicans, 24 h, pH 7
Description: as §1

Y2721 OE CpCYP51 = assay: MIC80 determination, strain Y2721; type: cell-based, S. cerevisiae; details: Saccharomyces cerevisiae
Description: as §1

Y2716 OE CpCYP51 Y132F = assay: MIC80 determination, strain Y2716; type: cell-based, S. cerevisiae; details: Saccharomyces cerevisiae
Description: as §1

Y2374 OE CgCYP51 = assay: MIC80 determination, strain Y2374; type: cell-based, S. cerevisiae; details: Saccharomyces cerevisiae
Description: as §1

Y433 OE CgCDR1 = assay: MIC80 determination, strain Y433; type: cell-based, S. cerevisiae; details: Saccharomyces cerevisiae
Description: as §1

Y2767 OE CauCYP51 = assay: MIC80 determination, strain Y2767; type: cell-based, S. cerevisiae; details: Saccharomyces cerevisiae
Description: as §1

Y2768 OE CauCYP51 Y132F = assay: MIC80 determination, strain Y2768; type: cell-based, S. cerevisiae; details: Saccharomyces cerevisiae
Description: as §1

Y2769 OE CauCYP51 K143R = assay: MIC80 determination, strain Y2769; type: cell-based, S. cerevisiae; details: Saccharomyces cerevisiae
Description: as §1

Y2765 OE CauMDR1 = assay: MIC80 determination, strain Y2765; type: cell-based, S. cerevisiae; details: Saccharomyces cerevisiae
Description: as §1

Y2766 OE CauCDR1 = assay: MIC80 determination, strain Y2766; type: cell-based, S. cerevisiae; details: Saccharomyces cerevisiae
Description: as §1

2711 CnCYP51 OE CnCPR = assay: MIC80 determination, strain 2711; type: cell-based, S. cerevisiae; details: Saccharomyces cerevisiae
Description: as §1

Y2649 OE CYP51 F1 RaCPR = assay: MIC80 determination, strain Y2649; type: cell-based, S. cerevisiae; details: Saccharomyces cerevisiae
Description: as §1

Y2651 OE CYP51 F5 RaCPR = assay: MIC80 determination, strain Y2651; type: cell-based, S. cerevisiae; details: Saccharomyces cerevisiae
Description: as §1

[1] = tested on: Y2746 OE AfCYP51A AfCPR AfERG6; assay: MIC80 determination, strain Y2746; type: cell-based, S. cerevisiae; details: Saccharomyces cerevisiae
Description: as §1

[2] = tested on: Y2747 OE AfCYP51B AfCPR AfERG6; assay: MIC80 determination, strain Y2747; type: cell-based, S. cerevisiae; details: Saccharomyces cerevisiae
Description: as §1

MCF-10A cells = assay: Viability (CellTiter Blue) assay; type: cell-based, human; details: 48 h, 10 μM to 1 pM
Description: Human epithelial breast cells, MCF-10A, were routinely cultured in DMEM/F-12 (Fisher Scientific, Loughborough, UK) containing 5% heat-inactivated horse serum (ThermoFisher Scientific, UK), 20 ng/mL hEGF (Merck Life Science, Dorset, UK), 500 ng/mL hydrocortisone (Merck Life Science, Dorset, UK) and 10 μg/mL insulin (Merck Life Science, Dorset, UK) under tissue culture conditions (37 °C, 5% CO2 in a humidified incubator). Cells were passaged upon reaching confluency using 0.25% Trypsin/EDTA (Fisher Scientific, Loughborough, UK) for a maximum of 15 passages from defrosting. […].
Cells were seeded in 100 μL of complete medium per well in a black, flat-bottomed, 96-well tissue-culture-treated plate (Fisher Scientific, Loughborough, UK) at a density of 4000 cells/well and incubated under tissue culture conditions for 24 h. Cells were then treated by mixing in an additional 100 μL of drug/diluent control in complete medium to give final concentrations of 10 μM–1 pM. DMSO was used as a vehicle control, and as a positive toxic control, staurosporine was added at a final concentration of 10 μM. Cells were then incubated for 48 h under tissue culture conditions before the treatments were replaced with fresh media before performing the CellTiter Blue assay (Promega, Southampton, UK) was performed following the manufacturer's instructions. […]

CaCYP51 Y132F = CaCYP51 Y132F (Candida albicans, UniProt P10613, Y132F); details: footnote b; ref number not given; cited from earlier work
Sequence of CaCYP51 Y132F (P10613 whole entry Y132F): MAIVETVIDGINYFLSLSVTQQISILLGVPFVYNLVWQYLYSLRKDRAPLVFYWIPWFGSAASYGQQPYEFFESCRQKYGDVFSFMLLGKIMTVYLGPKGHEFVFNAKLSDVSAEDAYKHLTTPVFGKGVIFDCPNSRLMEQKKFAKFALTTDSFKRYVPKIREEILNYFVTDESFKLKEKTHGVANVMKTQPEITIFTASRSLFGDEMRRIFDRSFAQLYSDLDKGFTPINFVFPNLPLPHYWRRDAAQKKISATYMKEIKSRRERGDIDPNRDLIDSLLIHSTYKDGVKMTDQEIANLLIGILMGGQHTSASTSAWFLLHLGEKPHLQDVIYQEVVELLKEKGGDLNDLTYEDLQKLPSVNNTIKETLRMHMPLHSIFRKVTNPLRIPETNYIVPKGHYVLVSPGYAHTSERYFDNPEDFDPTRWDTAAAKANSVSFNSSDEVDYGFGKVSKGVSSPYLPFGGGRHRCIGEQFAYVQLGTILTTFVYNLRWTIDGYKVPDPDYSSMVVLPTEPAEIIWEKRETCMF

CaCYP51 Y132H + K143R = CaCYP51 Y132H + K143R (Candida albicans, UniProt P10613, K143R/Y132H); details: footnote b; ref number not given; cited from earlier work
Sequence of CaCYP51 Y132H + K143R (P10613 whole entry Y132H/K143R): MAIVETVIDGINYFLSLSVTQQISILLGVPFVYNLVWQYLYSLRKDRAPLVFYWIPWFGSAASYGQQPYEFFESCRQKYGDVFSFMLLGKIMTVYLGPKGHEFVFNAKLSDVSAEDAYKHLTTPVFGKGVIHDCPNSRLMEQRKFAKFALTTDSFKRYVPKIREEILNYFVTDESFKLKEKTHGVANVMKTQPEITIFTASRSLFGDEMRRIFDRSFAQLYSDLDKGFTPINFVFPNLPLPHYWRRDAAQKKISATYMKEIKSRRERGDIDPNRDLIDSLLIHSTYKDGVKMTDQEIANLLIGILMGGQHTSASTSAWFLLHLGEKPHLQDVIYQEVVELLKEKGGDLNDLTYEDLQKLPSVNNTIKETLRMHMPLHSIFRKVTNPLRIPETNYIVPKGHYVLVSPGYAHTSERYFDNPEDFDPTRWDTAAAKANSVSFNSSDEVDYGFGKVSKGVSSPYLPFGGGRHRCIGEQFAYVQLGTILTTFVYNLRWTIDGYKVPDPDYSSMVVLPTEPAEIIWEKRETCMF

C. albicans = tested on: C. albicans; parameters: method as in number not given; details: ref number not given; cited from earlier work

Compound: CC[C@@H]([C@H](C)O)n1ncn(-c2ccc(N3CCN(c4ccc(OC[C@@H]5CO[C@@](Cn6cncn6)(c6ccc(F)cc6F)C5)cc4)CC3)cc2)c1=O [PCZ, posaconazole, reference compound]
- MIC80 (Y2411 Endog. ScCYP51): 0.097 ± 0.04 µM
- MIC80 (Y2300 OE ScCYP51): 2 ± 0.05 µM
- MIC80 (Y2301 OE ScCYP51 Y140F): 0.191 ± 0.041 µM
- MIC80 (Y2513 OE ScCYP51 Y140H): 0.147 ± 0.057 µM
- MIC80 (Y2459 OE CaCYP51 CaCpr): 0.22 ± 0.07 µM
- MIC80 (Y525 OE CaMDR1a): 0.218 µM
- MIC80 (Y570 OE CaCDR1B): > 25 µM
- MIC80 (Y71 SC5314): 0.073 µM
- MIC80 (Y1): 0.07 µM
- MIC80 (Y610 FHB1): 0.151 ± 0.016 µM
- MIC80 (Y611 FHB3): 0.53 µM
- MIC80 (Y2721 OE CpCYP51): 0.122 ± 0.037 µM
- MIC80 (Y2716 OE CpCYP51 Y132F): 0.135 ± 0.058 µM
- MIC80 (Y2374 OE CgCYP51): 0.332 µM
- MIC80 (Y433 OE CgCDR1): 23.8 µM
- MIC80 (Y2767 OE CauCYP51): 0.196 ± 0.022 µM
- MIC80 (Y2768 OE CauCYP51 Y132F): 0.168 ± 0.006 µM
- MIC80 (Y2769 OE CauCYP51 K143R): 0.117 ± 0.005 µM
- MIC80 (Y2765 OE CauMDR1): 0.096 ± 0.003 µM
- MIC80 (Y2766 OE CauCDR1): 0.971 ± 0.049 µM
- MIC80 (2711 CnCYP51 OE CnCPR): 0.035 ± 0.015 µM
- MIC80 (Y2649 OE CYP51 F1 RaCPR): 0.1 µM
- MIC80 (Y2651 OE CYP51 F5 RaCPR): 0.054 ± 0.011 µM
- MIC80 [1]: 0.033 ± 0.014 µM
- MIC80 [2]: 0.07 ± 0.024 µM
- cell viability (tolerance in words) (MCF-10A cells): no difference observed
- IC50 (CaCYP51 Y132F): 343 ± 20 nM
- IC50 (CaCYP51 Y132H + K143R): 196 ± 7 nM
- MIC (C. albicans): ≤ 0.03 µg/mL
